Data set [1] has as its target ABL (Homo sapiens, UniProt P00519). Briefly: ABL Kinase Activity Assay (Elisa), ABL. To be noted: ATP 100 μM, read-out: Abl Enzymetic assay (Elisa) % inhibition. The data set is classed as biochemical. The method in brief: (§1)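 Recombinant ABL or ABL T315I (0.089 nM final) preincubated 20 min with compound, then reacted 1 h at room temperature with 100 μM ATP and 128 nM biotinylated AblTide in Tris pH 7.0/MgCl2 buffer. Phosphopeptide captured on streptavidin and detected by anti-phosphotyrosine ELISA with alkaline phosphatase secondary and Attophos fluorescence.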

Data set [2] concerns the target ABL T315I (Homo sapiens, UniProt P00519, T315I). Nature of the data set: ABL Kinase Activity Assay (Elisa), ABL T315I. The data set is classed as biochemical. To be noted: ATP 100 μM, read-out: Abl(T315I) Enzymetic assay (Elisa) % inhibition. The method in brief:
as §1

The test system of data set [3] is KATO III. Nature of the data set: MTS assay, KATO III cells. The data set is classed as cell-based. Conditions: Homo sapiens, 72 hours. Put shortly: (§2)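 First, seed 3000 cells per well in low-serum (1% FBS) DMEM and culture 18 h. Next, add compounds prepared at 300× in DMSO and diluted 1:40 in DMEM; incubate 72 h. Finally, add MTS/PMS for 4 h and measure absorbance at 492 nm.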

The test system of data set [4] is PC-3. Nature of the data set: MTS assay, PC-3 cells. The data set is classed as cell-based. Conditions: Homo sapiens, 72 hours. Put shortly:
as §2

Data set [5] deals with NCI-H1299. Nature of the data set: MTS assay, NCI-H1299 cells. It is filed as cell-based. To be noted: Homo sapiens, 72 hours. Put shortly: as §2
Data set [6] deals with DLD-1. Nature of the data set: MTS assay, DLD-1 cells. Conditions: Homo sapiens, 72 hours. It is filed as cell-based. Put shortly:
as §2

For data set [7], the system named is PACA-2. Briefly: MTS assay, PACA-2 cells. It is filed as cell-based. Conditions: 72 hours. The method in brief:
as §2

The subject of data set [8] is MDA-MB-231. Nature of the data set: MTS assay, MDA-MB-231 cells. The data set is classed as cell-based. Conditions: Homo sapiens, 72 hours. The method in brief: as §2
A general note: Tetrazolium assays rely on reduction of a dye to a coloured formazan, in cell work by metabolically active cells.

Take `Cc1cccc2c(CCNc3ncc4c(n3)-c3cccnc3Nc3cnccc3-4)c[nH]c12` [Example 52, N-[2-(7-methyl-1H-indol-3-yl)ethyl]-9H-dipyrido[2,3-b:4′,3′-f]pyrimido[4,5-d]azepin-2-amine]: the melting point (commonly the temperature of the solid-liquid transition) lay in the range of 153 to 155 °C. The inhibition – broadly, the change of the read-out against control, counted positive when it falls – at 10 µM in [1] is 80 to 100%. Moreover, the inhibition at 10 µM in data set [2] is 80 to 100%. The inhibition at 10 µM in data set [3] lay in the range of 80 to 100%. The compound also came in with an inhibition at 10 µM in data set [4] of less than 50%. Moreover, the inhibition at 10 µM in data set [5] was in the range of 50 to 79%. This compound also registered an inhibition at 10 µM in data set [6] of 50 to 79%. In [7], this compound came in with an inhibition at 10 µM of less than 50%. The compound further came in with an inhibition at 10 µM in [8] of less than 50%.

`Cc1cccc2c(CCNc3ncc4c(n3)-c3cccnc3Nc3ccccc3-4)c[nH]c12` [Example 65, N-[2-(7-methyl-1H-indol-3-yl)ethyl]-9H-pyrido[2,3-b]pyrimido[4,5-d][1]benzazepin-2-amine] registered a melting point of 188 to 190 °C. The compound further came in with an inhibition at 10 µM in [3] of 80 to 100%. Further, the inhibition at 10 µM in [4] lay in the range of 80 to 100%. This compound showed an inhibition at 10 µM in [5] of 80 to 100%. Further, the inhibition at 10 µM in [6] lay within 80 to 100%. The compound further had an inhibition at 10 µM in data set [7] of 80 to 100%. Also, the inhibition at 10 µM in data set [8] lay within 50 to 79%.

With `c1ccc2c(c1)Nc1ncccc1-c1nc(NCc3ccnc4[nH]ccc34)ncc1-2` [Example 66, N-(1H-pyrrolo[2,3-b]pyridin-4-ylmethyl)-9H-pyrido[2,3-b]pyrimido[4,5-d][1]benzazepin-2-amine], the melting point lay in the range of 285 to 288 °C. The inhibition at 10 µM in data set [3] was 80 to 100%. In addition, in [4], the inhibition at 10 µM was in the range of 50 to 79%. The inhibition at 10 µM in data set [5] lay in the range of 50 to 79%. For the same compound, in [6], the inhibition at 10 µM fell in the range of 50 to 79%. Also, the inhibition at 10 µM in data set [7] was 80 to 100%. In [8], this compound showed an inhibition at 10 µM of 50 to 79%.
